Assay results as given in patent US20250049800A1, “VCP/p97 INHIBITOR FOR THE TREATMENT OF CANCER” (CASI Pharmaceuticals, Inc., priority 2021, published 2025).

Tests used:
[1] = Phase I study: safety, adverse events and visual symptoms; assay type: in vivo, human
Procedure: Similar dosing may be used in the dose expansion part of the study. BID dosing may be also tested depending on initial PK assessments. Participants were evaluated regularly for safety assessments including physical examinations and laboratory testing. Bone marrow aspirates and/or biopsies are performed at regular intervals, including for assessment of tumor response as per 2017 European LeukemiaNet (ELN) response criteria for AML or 2006 revised International Working Group (IWG) response criteria for MDS. Peripheral blood samples are collected in Cycle 1 for intensive PK testing and PD biomarker assessments. Additional intensive PK testing is collected for any participants undergoing intra-patient dose escalation.

HCC1806 (Breast) = experiment: Cell Titer-Glo viability: single agent IC50 and Compound 1 + PARP inhibitor matrix (Bliss); assay type: cell-based; settings: Homo sapiens, 72 h, single agent, read-out: Absolute IC50
Procedure: (§1) The PARP inhibitors used for the study were talazoparib, olaparib and niraparib. […] was used as a reference control. […] For each drug agent on its own, IC50 values in each cell line were determined. Interactions of the combinations of Compound 1 and each PARP inhibitor was assessed as follows: […] Cisplatin and culture media were used as positive and negative control, respectively. The combination activities were assessed using CrownSyn software to determine synergy scores by Bliss Independence and Loewe additivity methods. […] Synergy scores calculated by both Bliss independence model and Loewe additivity model (see Greco, […]., Poch, G., Suhnel, J., Kundi, M., & Bodeker, W. (1992). Consensus on concepts and terminology for combined-action assessment: the […] agreement. […] Without being bound by theory, the Bliss independence model is often applied to asses synergy for non-interacting drugs that elicit their responses independently, e.g., by targeting separate pathways, whereas the Loewe additivity model may be more compatible where both drugs have similar modes of action on the same targets or pathways.

Capan-1 (Pancreas) = experiment: as above; assay type: cell-based; settings: Homo sapiens, 72 h, single agent, read-out: Absolute IC50
Procedure: as §1

OVCAR-8 (Ovary) = experiment: as above; assay type: cell-based; settings: Homo sapiens, 72 h, single agent, read-out: Absolute IC50
Procedure: as §1

SK-OV-3 (Ovary) = experiment: as above; assay type: cell-based; settings: Homo sapiens, single agent, read-out: Absolute IC50
Procedure: as §1

DU4475 (Breast) = experiment: as above; assay type: cell-based; settings: Homo sapiens, DU-4475, 72 h, single agent, read-out: Absolute IC50
Procedure: as §1

IGR-OV1 (Ovary) = experiment: as above; assay type: cell-based; settings: Homo sapiens, IGROV-1, 72 h, single agent, read-out: Absolute IC50
Procedure: as §1

[2] = test system: DoTc2 4510 (Uterus/Cervix); experiment: as above; assay type: cell-based; settings: Homo sapiens, single agent, read-out: Absolute IC50
Procedure: as §1

HCC1937 (Breast) = experiment: as above; assay type: cell-based; settings: Homo sapiens, single agent, read-out: Absolute IC50
Procedure: as §1

HCC1395 (Breast) = experiment: as above; assay type: cell-based; settings: Homo sapiens, 72 h, single agent, read-out: Absolute IC50
Procedure: as §1

MX-1 (Breast) = experiment: as above; assay type: cell-based; settings: single agent, read-out: Absolute IC50
Procedure: as §1

K48-Ub (ubiquitin) = K48-Ub (ubiquitin) biomarker in patient blood samples; assay type: in vivo, human; settings: cohorts 4 and 5; two of 5 patients showed changes
Procedure: Two biomarkers were assessed in patients from cohorts 4 and 5. K48-Ub (ubiquitin) and Activated Caspase 3 biomarkers were analyzed from 5 patient blood samples.

With `Cc1cc2c(C(N)=O)cccc2n1-c1nc2c(c(NCc3ccccc3)n1)CCCN2` [Compound 1, 1-(4-(benzylamino)-5,6,7,8-tetrahydropyrido[2,3-d]pyrimidin-2-yl)-2-methyl-1H-indole-4-carboxamide] the adverse events ([1]; cohorts dosed 25 mg to 450 mg QD) was “No adverse events were observed”, the “visual adverse events at plasma exposure equivalent to CB-5083” value ([1]; highest doses) was “no lasting symptoms” and the “symptoms of visual impairment” value ([1]; lower dose cohorts) was “No symptoms of visual impairment”. For the same compound, the “visual adverse events at plasma exposure equivalent to CB-5083” value ([1]; lower doses) was “no symptoms of visual impairment or other visual adverse events”, the visual symptoms ([1]; two patients in cohort X) was “low-grade visual symptoms on the day of dosing that did not persist” and the IC50 (HCC1806 (Breast)) was 437 nM. It also gave an IC50 (Capan-1 (Pancreas)) of 405 nM, an IC50 (OVCAR-8 (Ovary)) of 200 nM and an IC50 (SK-OV-3 (Ovary)) of 1790 nM. The IC50 (DU4475 (Breast)) was 343 nM, the IC50 (IGR-OV1 (Ovary)) was 279 nM and the IC50 [2] was 513 nM. It also gave an IC50 (HCC1937 (Breast)) of 559 nM, an IC50 (HCC1395 (Breast)) of 201 nM and an IC50 (MX-1 (Breast)) of 409 nM. For the same compound, the “K48-Ub (ubiquitin) biomarker, best fold change after treatment” value (K48-Ub (ubiquitin)) was “approximately 3.5 fold”.
